# Test results taken from publication PMC11335189, “Revealing molecular determinants governing mambalgin-3 pharmacology at acid-sensing ion channel 1 variants” (Cellular and Molecular Life Sciences: CMLS, 2024).
# Where a chain is given by its changes, count along the chain named. Positions of bridges follow the written chain, without caps; N, C: chain ends. No end group written: not given here.
# Key:
# rASIC1b N324K = target: T1, rASIC1b N324K (Rattus norvegicus, UniProt P55926, N291K); assay: TEVC oocytes, rASIC1b N324K mutant; assay type: cell-based; conditions: 300 nM Ma-3, conditioning pH 7.45; Hill fit, n = 5–6
# T1 construct: expressed in transfected cells; host or cells: Xenopus laevis oocytes injected with cRNA
# T1 sequence (P55926 1-559 isoform P55926-3 N324K): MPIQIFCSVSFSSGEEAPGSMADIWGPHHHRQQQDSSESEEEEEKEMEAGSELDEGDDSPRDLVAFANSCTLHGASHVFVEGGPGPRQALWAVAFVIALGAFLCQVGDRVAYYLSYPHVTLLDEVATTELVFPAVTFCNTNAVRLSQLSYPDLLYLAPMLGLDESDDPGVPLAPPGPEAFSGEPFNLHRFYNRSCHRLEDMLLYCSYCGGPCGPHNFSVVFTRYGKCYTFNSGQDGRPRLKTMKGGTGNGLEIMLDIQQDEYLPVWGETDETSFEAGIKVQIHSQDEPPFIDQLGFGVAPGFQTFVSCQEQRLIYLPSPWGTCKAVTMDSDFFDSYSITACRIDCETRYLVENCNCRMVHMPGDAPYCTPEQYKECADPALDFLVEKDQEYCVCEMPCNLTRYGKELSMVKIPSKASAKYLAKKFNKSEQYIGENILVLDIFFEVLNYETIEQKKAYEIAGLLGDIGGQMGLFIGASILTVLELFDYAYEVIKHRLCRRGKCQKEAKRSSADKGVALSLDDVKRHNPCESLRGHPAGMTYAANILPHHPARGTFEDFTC
# Description: (§1) Two-electrode voltage-clamp (TEVC) experiments using Xenopus laevis oocytes were conducted as previously described. Briefly, oocytes were surgically removed from anaesthetised female frogs, then treated with collagenase (~ 1 mg/ml, Sigma type I) for 2 h under agitation at room temperature. cRNAs were synthesised using a mMessage mMachine T7 or SP6 transcription kit (Thermo Fisher Scientific Australia Pty Ltd, Scoresby, VIC, Australia) and injected into healthy stage V–VI oocytes at 0.2–20 ng per cell. […] Membrane currents were recorded 2–7 days after cRNA-injection under voltage-clamp at -60 mV (Axon Axoclamp 900 A, Molecular Devices, CA, USA) using two standard glass microelectrodes of 0.5–1 MΩ resistance when filled with 3 M KCl solution. […]
# (§2) Specific to this work, the standard protocol was for oocytes to be conditioned at pH 7.45 and channels stimulated every 60 s using a 5 s pH 5 or 6 application, unless stated otherwise. […] Activation curves were determined by conditioning oocytes at pH 8 (Fig. 2e − g; and Fig. 5a and b) or 7.45 (Fig. 6; and Supplementary Fig. 2d and c) for 55 s and applying low pH stimuli from 7.25 to 5.0 for 5 s. Steady-state desensitisation (SSD) was determined by applying conditioning solutions of pH values from 8 to 6 for 115 s prior to stimulation by a pH drop to 5 for 5 s. […] Control pH-dependence curves were determined in the absence of any Ma-3. […]
# rASIC1a N291A = assay: TEVC oocytes, rASIC1a N291A mutant; assay type: cell-based, rat; conditions: concentration-response, conditioning pH 7.45, stimulating pH 6
# Description: as §1, §2
# [1] = target: T2, rASIC1b C208Q/N324K (CN/QK) (Rattus norvegicus, UniProt P55926, C208Q/N291K); assay: TEVC oocytes, rASIC1b double mutant CN/QK; assay type: cell-based
# T2 construct: expressed in transfected cells; host or cells: Xenopus laevis oocytes injected with cRNA
# T2 sequence (P55926 1-559 isoform P55926-3 C208Q/N324K): T1 sequence (P55926 1-559 isoform P55926-3 N324K) with C208Q
# Description: as §1, §2
substance,measurement,setting,value
"H-SLKCYQHGKVVTCHRDMKFCYHNIGMPFRNLKLILQGCSSSCSETENNKCCSTDRCNK (disulfide 4-20, 13-38, 42-50, 51-56 (inferred)) [Ma-3, mambalgin-3]",pH50 of activation in presence of Ma-3,rASIC1b N324K,6.21
same,effect of channel mutation on Ma-3 potency,rASIC1a N291A,had no effect on potency
same,pH50 of activation in presence of Ma-3,"[1]; 300 nM Ma-3, conditioning pH 7.45, Hill fit, n = 5–6",6.29
same,Hill slope (95% CI),"[1]; conditioning pH 7.45, pH 6 evoked currents, potentiation, 95% CI",0.69–2.48
